Laboratory results as given in patent publication US20070117220A1, “METHOD AND APPARATUS FOR MEASURING FLUORESCENCE POLARIZATION IN LAB-ON-A-CHIP” (priority 2005, published 2007).

How the values were obtained:
[1] = test system: TMR-α-casein; experiment: Protease assay by fluorescence polarization of TMR-α-casein substrate, commercial fluorescence spectrometer; format: biochemical; settings: time course, varying enzyme concentrations (unit/mL); FIGS. 9A-9D
Description: Changes of fluorescence polarization FP were measured using the method and apparatus for measuring fluorescence polarization of the present invention, employing TMR-α-casein as a substrate, composed of TMR as a fluorescent probe and α-casein, a universal protein substrate reacted with various proteases.
First, TMR-α-casein, a fluorescently labeled substrate for proteases, was prepared by applying one of the well-known methods [Analytical Biochemistry (,1996) 243, 1-7] as follows.
10 mg/mL of α-casein (sigma) and 5 mg/mL of 5-carboxytetramethylrhodamine succinimidyl ester were mixed in 0.1 M sodium bicarbonate buffer solution (pH 9.0) for reaction at room temperature for two and a half hours. The resulting TMR-α-casein was purified by passing the reaction mixture over a HiTrap desalting column (Sephadex G-25 Amersham Bioscience), and used after quantitation of the amounts of protein and fluorescence.
Proteinase K, trypsin, papain and elastase were used as proteases to react at increasing concentrations. First, as a comparative example, the process that the TMR-α-casein substrate was degraded by the proteases was analyzed using a commercial fluorescence spectrometer (Perkin Elmer). […]

[2] = test system: TMR-α-casein; experiment: On-chip protease assay by fluorescence polarization of TMR-α-casein substrate, lab-on-a-chip with optical chopper; format: biochemical; settings: 1 μM TMR-α-casein final in channel; reaction time 5.1 seconds; FIGS. 10A-10D
Description: Next, the protease assays were carried out using an apparatus for measuring fluorescence polarization including the optical chopper of FIG. 2 on a lab-on-a-chip of glass composed of a channel 1 C1, in which substrates or enzymes flowed, and a channel 2 C2, in which the reaction occurred, the channels having a depth of 12 μm and a width of 79 μm as depicted in FIG. 8.
For on-chip protease assays, the substrates and the enzymes should mix completely prior to the enzyme reactions. […] […] Therefore, the reaction time was confirmed to be 5.1 seconds after mixing of the substrate with the enzymes.
Subsequently, to carry out the protease assays in the lab-on-a-chip,2 μM of TMR-α-casein (the final concentration in the channel was 1 μM) was placed in a substrate reservoir and the respective proteases were placed in an enzyme reservoir at increasing concentrations in the same manner as the comparative example. Then, the two substances were allowed to flow into a channel 2 C2, a main channel, to cause a reaction. Fluorescence polarization FP was then measured at the detection point, positioned 32 mm away from the junction, from which the substrates and the enzymes flowed in.
Again, it was noted that fluorescence polarization values plateaued when the concentration of the enzymes reached at the point generating a specific rate or more.

[3] = target: T1, streptavidin (Streptomyces avidinii, UniProt P22629); experiment: Fluorescence polarization of biotin/streptavidin complex in lab-on-a-chip microchannel, apparatus of FIG. 2 with optical chopper (Embodiment 3); format: binding
T1 sequence (P22629 25-183, species assumed): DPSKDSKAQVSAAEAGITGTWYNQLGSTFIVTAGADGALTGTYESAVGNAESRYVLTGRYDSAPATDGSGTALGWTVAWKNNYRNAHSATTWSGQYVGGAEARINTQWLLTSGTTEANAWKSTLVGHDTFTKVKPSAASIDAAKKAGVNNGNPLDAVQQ
Description: Fluorescence polarization for the complex of biotin and streptavidin was measured using the apparatus of FIG. 2 including the optical chopper of the invention. In this Embodiment, a lab-on-a-chip made of glass and composed of a microchannel having a depth of 12 μm and a width of 79 μm was used to measure fluorescence polarization for a complex of biomolecule-fluorescently labeled biomaterial.
For the measurement, the samples were respectively filled in the reservoir of the lab-on-a-chip as following three cases: (A) wherein 4 μM of tetramethylrhodamine TMR was filled in the reservoir; (B) wherein 4 μM of TMR-biotin was put into the reservoir; and (C) wherein 4 μM of TMR-biotin and 1 μM of streptavidin were filled in the reservoirs.
Fluorescence polarizations FP for the above samples were measured in the microchannel of the lab-on-a-chip using the apparatus of FIG. 2 including the optical chopper.
As a result, in case of (A), fluorescence polarization was measured 0.047; in case of (B), it was 0.062; and in case of (C), it was 0.240, which were increased the complex of TMR-biotin and streptavidin was formed as shown in FIG. 7A.

[4] = target: T1, streptavidin; experiment: Fluorescence polarization of biotin/streptavidin complex in lab-on-a-chip microchannel, apparatus of FIG. 2 without optical chopper (Embodiment 2); format: binding
Description: Fluorescence polarization FP for the complex of biotin and streptavidin in a lab-on-a-chip was measured using the apparatus of FIG. 2, wherein the optical chopper was not inserted. In this Embodiment, a lab-on-a-chip made of glass and composed of a microchannel having a depth of 12 μm and a width of 79 um was used instead of the 100 μL cuvette. After filling 100 μM of tetramethylrhodamine TMR solution in the microchannel of the lab-on-a-chip using a vacuum pump, a G-factor value was obtained in the same manner described above in Embodiment 1. […] Subsequently, the above samples filled in the reservoirs 1 and 2 were injected into the microchannel using the vacuum pump 6 of the lab-on-a-chip to measure fluorescence polarizations FP for the samples at a detection point 5 of the lab-on-a-chip.
As a result, in case of (A), fluorescence polarization was measured 0.085; in case of (B), it was 0.097; in case of (C), it was 0.036; in case of (D), it was 0.040; and in case of (E), it was 0.064, which were deviated from the expectations of increases in fluorescence polarization FP as not increased as the complex of TMR-biotin and streptavidin was formed as shown in FIG. 6A.
Fluorescence polarizations were recalculated from the measured values by subtracting the offset values, the offset being measured in the microchannel when only the buffer solution was filled. […]

| Compound | change of fluorescence polarization values of TMR-α-casein as the reaction proceeded [1] | change of fluorescence polarization values of TMR-α-casein with enzyme concentration [2] | other results |
| --- | --- | --- | --- |
| elastase | decreased | decreased with increasing concentrations |  |
| O=C(O)CCCC[C@@H]1SC[C@@H]2NC(=O)N[C@@H]21 [D-biotin] |  |  | change of fluorescence polarization by competitive inhibition of TMR-biotin/streptavidin binding ([3]; increasing concentrations of D-biotin supplied to the complex (4 μM TMR-biotin, 1 μM streptavidin) in the microchannel, FIG. 7B): decreased with the increasing concentrations |
| trypsin | decreased | decreased with increasing concentrations |  |
| CN(C)c1ccc2c(-c3ccccc3C(=O)[O-])c3ccc(N(C)C)cc3[o+]c2c1 [TMR, tetramethylrhodamine] |  |  | fluorescence polarization ([3]; 4 μM probe only, microchannel, optical chopper): 0.047; fluorescence polarization recalculated by subtracting the offset values ([4]; 1.25 μM probe only in reservoir 1, buffer offset subtracted): 0.020; fluorescence polarization (as measured, offset not subtracted) ([4]; 1.25 μM probe only in reservoir 1, no chopper): 0.085 |
